US12691070B2, “Cationic lipids and preparation method thereof” (RiboX Therapeutics HK Limited, priority 2023, dated 2026)

Tests used:
[1] = tested on: MCP-I; assay: MCP-I cytokine elevation in serum; type: in vivo; details: cirRNA (SEQ ID NO: 1) LNPs, mice
Protocol: 6-8 week old, female BALB/C mice were injected with 0.5 mg*kg-1 of RNA LNPs by intravenous injection. At 2 and 24 hours post injection, animals were bled and sera concentrations of MCP-I were determined by an immunoassay (Luminex).

[2] = tested on: RAW 264.7 cells; assay: In vitro expression of firefly-luciferase, RAW 264.7; type: cell-based
In short: (§1)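 Transfection used 100 ng/mL luciferase-encoding RNA-LNPs; activity in lysates was determined at 72 h.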

[3] = tested on: Aspartate Aminotransferase (AST); assay: Liver enzyme elevation in serum, AST; type: in vivo; details: cirRNA (SEQ ID NO: 1) LNPs, BALB/C mice, intravenous 0.5 MPK
Protocol: (§2) 6-8 week old, female BALB/C mice were injected with 0.5 mg*kg-1 of RNA LNPs by intravenous injection. At 2 and 24 hours post injection, animals were bled and sera concentrations of Alanine Aminotransferase (ALT) and Aspartate Aminotransferase (AST) were determined by a blood chemistry analyzer.

[4] = tested on: BALB/C mice; assay: In vivo expression, whole-body luminescence (IVIS)
Protocol: 6-8 week old, female BALB/C mice were injected with 0.05 mg*kg-1 of RNA-LNPs encoding for firefly-luciferase by intravenous injection. At 6 hours post injection, animals were intraperitoneally injected with 15 mg/ml of Luciferin substrate and whole-body luminescence was determined by a bioluminescent in vivo imaging system (IVIS).

[5] = tested on: Hep G2 cells; assay: In vitro expression of firefly-luciferase, Hep G2; type: cell-based
In short: as §1

[6] = tested on: Hep G2 cells; assay: In vitro toxicity (CellTiter-Glo cell viability), Hep G2; type: cell-based;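 note: percent of untreated cells luminescence signal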
In short: (§3)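 Viability after a 72 h incubation with 1 μg/mL RNA-LNP formulations was assessed luminometrically using CellTiter-Glo.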

[7] = RNA encapsulation efficacy by Quant-IT Ribogreen kit; type: physicochemical; details: for Encapsulation Efficiency %: LNP with cirRNA (SEQ ID NO: 1); for Encapsulation Efficiency: LNP with mRNA (SEQ ID NO: 2)
In short: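 Encapsulation efficacy came from Ribogreen fluorescence of LNPs compared with Triton X-100-lysed LNPs. The particles carried luciferase-encoding circular or linear RNA at an ionizable lipid:ribonucleotide ratio of 15 or 6.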

[8] = tested on: Alanine Aminotransferase (ALT); assay: Liver enzyme elevation in serum, ALT; type: in vivo; details: cirRNA (SEQ ID NO: 1) LNPs, BALB/C mice, intravenous 0.5 MPK
Protocol: as §2

[9] = tested on: RAW 264.7 cells; assay: In vitro toxicity (CellTiter-Glo cell viability), RAW 264.7; type: cell-based;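 note: percent of untreated cells luminescence signal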
In short: as §3

[10] = LNP size and polydispersity index (PDI) by dynamic light scattering; type: physicochemical; details: for Size: in nm (unit assumed)
In short: (§4)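 Ribogreen fluorescence with and without Triton X-100 gave encapsulation as 100% − (intact/lysed) signal; DLS size, PDI and zeta potential measured on a Zetasizer. Particles: 50:10:38.5:1.5 lipid mix, luciferase circRNA or mRNA, lipid:nucleotide 15 or 6, microfluidic assembly at pH 4.5, PBS-dialyzed.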

[11] = tested on: BALB/C mice; assay: Local tolerance determination by footpad injection; type: in vivo; details: cirRNA (SEQ ID NO: 1) LNP, 0.175 mg*kg-1 subcutaneous into the footpad, 24 hours post minus prior
Protocol: 6-8 week old, female BALB/C mice were injected with 0.175 mg*kg-1 RNA LNPs by subcutaneous injection into the footpad. Prior to, and 24 hours post injections, injected footpad thickness was determined by a caliper.

[12] = LNP zeta potential (Zetasizer); type: physicochemical
In short: as §4

[13] = cirRNA (SEQ ID NO: 1) LNPs, firefly-luciferase luminescence, RAW 264.7 cells
[14] = mRNA (SEQ ID NO: 2) LNP, 100 ng/mL, 72 hours post transfection, luciferase activity
[15] = cirRNA (SEQ ID NO: 1) LNPs, BALB/C mice
[16] = mRNA (SEQ ID NO: 2) LNP, 0.05 mg*kg-1 intravenous, 6 hours post injection
[17] = cirRNA (SEQ ID NO: 1) LNPs, firefly-luciferase luminescence, Hep G2 cells
[18] = cirRNA (SEQ ID NO: 1) LNPs, Hep G2 cells
[19] = mRNA (SEQ ID NO: 2) LNP, 1 μg/mL, 72 hours post transfection
[20] = cirRNA (SEQ ID NO: 1) LNPs, RAW 264.7 cells

Structure (SMILES) | MCP-I in Sera 2 hours After 0.5 MPK Injection [1] [pg/mL] | MCP-I in Sera 24 hours After 0.5 MPK Injection [1] [pg/mL] | In vitro Expression RAW [2, 13] | In vitro Expression RAW [2, 14] | In vivo Expression (Whole Body) [4, 15] | In vivo Expression (Whole Body) [4, 16] | In vitro Expression HepG2 [5, 17] | In vitro Expression HepG2 [5, 14] | In vitro Viability HepG2 [6, 18] [%] | In vitro Viability HepG2 [6, 19] [%] | Encapsulation Efficiency % [7] [%] | Encapsulation Efficiency [7] [%] | In vitro Viability RAW [9, 20] [%] | In vitro Viability RAW [9, 19] [%] | PDI ([10]; LNP with cirRNA (SEQ ID NO: 1)) | Size ([10]; LNP with cirRNA (SEQ ID NO: 1)) | PDI ([10]; LNP with mRNA (SEQ ID NO: 2)) | Size ([10]; LNP with mRNA (SEQ ID NO: 2)) | Zeta (mV) ([12]; LNP with cirRNA (SEQ ID NO: 1)) | Zeta (mV) ([12]; LNP with mRNA (SEQ ID NO: 2)) | further results
CCCCCCCCC(CCCCCC)C(=O)OCCCCCCCCN(CCCCCCCCOC(=O)C(CCCCCC)CCCCCCCC)CCOC(=O)NCCN(C)C (stereo not shown) [Lipid 6, 10-(8-((2-hexyldecanoyl)oxy)octyl)-2-methyl-6-oxo-7-oxa-2,5,10-triazaoctadecan-18-yl 2-hexyldecanoate] | 7009.50 | 1653.42 | 1.11E+07 | 1.21E+07 | 1.21E+09 | 1.91E+09 | 1.82E+08 | 2.28E+08 | 89 | 113 | 96 | 93.16 | 100 | 77 | 0.06 | 87.2 | 0.03302 | 106.5 | −2.24 | 4.201 | AST in Sera (IU/L) 2 hours After 0.5 MPK Injection [3]: 316.00 IU/L; AST in Sera (IU/L) 24 hours After 0.5 MPK Injection [3]: 411.00 IU/L; ALT in Sera (IU/L) 2 hours After 0.5 MPK Injection [8]: 99.33 IU/L; ALT in Sera (IU/L) 24 hours After 0.5 MPK Injection [8]: 181.67 IU/L; Footpad Thickness (24 h−0 h, mm) [11]: 0.44 mm
CCCCCCCCC(CCCCCC)C(=O)OCCCCCCCCN(CCCCCCCCCCC(=O)OCCCCCC)CCOC(=O)NCCN(C)C (stereo not shown) [Lipid 43, hexyl 10-(8-((2-hexyldecanoyl)oxy)octyl)-2-methyl-6-oxo-7-oxa-2,5,10-triazahenicosan-21-oate] | 5561.83 | 17.57 | 1.10E+05 | 9.60E+04 | 6.22E+08 | 1.98E+08 | 1.75E+04 | 1.33E+06 | 97 | 97 | 95 | 88 | 97 | 88 | 0.04 | 91.2 | 0.09046 | 67.1 | 1.26 | 12.6 | AST in Sera (IU/L) 2 hours After 0.5 MPK Injection [3]: 135.60 IU/L; AST in Sera (IU/L) 24 hours After 0.5 MPK Injection [3]: 88.97 IU/L; ALT in Sera (IU/L) 2 hours After 0.5 MPK Injection [8]: 57.07 IU/L; ALT in Sera (IU/L) 24 hours After 0.5 MPK Injection [8]: 41.53 IU/L; Footpad Thickness (24 h−0 h, mm) [11]: 0.33 mm
CCCCCCCCCCC(CCCCCCCC)COC(=O)CCCCCN(CCCCCCCCOC(=O)C(CCCCCC)CCCCCCCC)CCOC(=O)NCCN(C)C (stereo not shown) [Lipid 51, 2-octyldodecyl 10-(8-((2-hexyldecanoyl)oxy)octyl)-2-methyl-6-oxo-7-oxa-2,5,10-triazahexadecan-16-oate] | 3296.20 | 562.40 | 8.74E+06 | 2.63E+06 | 6.85E+08 | 1.78E+09 | 9.85E+05 | 4.66E+07 | 88 | 83 | 97 | 89 | 104 | 80 | 0.04 | 89.19 | 0.1368 | 79.21 | −0.71 | 3.197 | AST in Sera (IU/L) 2 hours After 0.5 MPK Injection [3]: 193.77 IU/L; AST in Sera (IU/L) 24 hours After 0.5 MPK Injection [3]: 94.73 IU/L; ALT in Sera (IU/L) 2 hours After 0.5 MPK Injection [8]: 71.07 IU/L; ALT in Sera (IU/L) 24 hours After 0.5 MPK Injection [8]: 45.50 IU/L; Footpad Thickness (24 h−0 h, mm) [11]: 1.11 mm
CCCCCCCCC(CCCCCC)C(=O)OCCCCCCCCN(CCCCCCCCOC(=O)C(CCCCCC)CCCCCCCC)CCCOC(=O)NCCN1CCCC1 (stereo not shown) [Lipid 379] | – | – | 1.60E+06 | – | 2.86E+07 | – | 1.16E+07 | – | 45 | – | 92 | – | 72 | – | 0.1919 | 117.2 | – | – | 3.38 | – | –
CCCCCCCCC(CCCCCC)C(=O)OCCCCCCCCN(CCCCCCCCOC(=O)C(CCCCCC)CCCCCCCC)CCCOC(=O)NCCN1CCC1 (stereo not shown) [Lipid 382] | – | – | 5.69E+04 | – | 4.22E+06 | – | 3.97E+05 | – | 42 | – | 94 | – | 84 | – | 0.2452 | 145.3 | – | – | 4.75 | – | –
CCCCCCCCC(CCCCCC)C(=O)OCCCCCCCCN(CCCCCCCCOC(=O)C(CCCCCC)CCCCCCCC)CCCNCCN(C)C (stereo not shown) [Lipid 384] | – | – | 3.15E+05 | – | 1.15E+07 | – | 2.57E+06 | – | 81 | – | 96 | – | 88 | – | 0.2423 | 135.9 | – | – | 8.213 | – | –
CCCCCCCCC(CCCCCC)C(=O)OCCCCCCCCN(CCCCCCCCOC(=O)C(CCCCCC)CCCCCCCC)CCCNCCCN(CC)CC (stereo not shown) [Lipid 385] | – | – | 1.37E+04 | – | 1.79E+06 | – | 1.31E+05 | – | 74 | – | 94 | – | 80 | – | 0.2458 | 159 | – | – | 11.28 | – | –
CCCCC/C=C\C/C=C\CCCCCCCCN(CCCCCCCC/C=C\C/C=C\CCCCC)CCOC(=O)CCCN(C)C [Lipid A, reference compound] | – | – | – | 5.86E+06 | – | 2.13E+08 | 1.90E+06 | 3.08E+07 | – | 108 | 74 | 83.95 | – | 96 | 0.2901 | 145.2 | 0.2719 | 118 | 1.916 | 10.76 | –
CCCCC/C=C\C/C=C\CCCCCCCCN(CCCCCCCC/C=C\C/C=C\CCCCC)CCOC(=O)[C@@H](N)Cc1c[nH]cn1 [Lipid B, reference compound] | – | – | – | 1.32E+05 | – | 3.42E+08 | 8.71E+05 | 4.21E+05 | – | 97 | 88 | 86.87 | – | 92 | 0.2623 | 93.61 | 0.2472 | 80.28 | 3.811 | 0.02157 | –
